Experimental data reported in US11702427B2 (priority 2018, dated 2023).

tested on: HBsAg; assay: HBsAg assay: inhibition of HBsAg in HepG2.2.15 cells (CLIA immunoassay of supernatant); format: cell-based, hepatitis B virus (HBV); conditions: Hepatitis B virus, HepG2.2.15, 144 h, read-out: sAg EC50, HepG2.2.15 cells; supernatant collected at day 6 after exposure; HBsAg chemiluminescence immunoassay
How it was run: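 HepG2.2.15 cells (30,000/well) exposed to serially diluted compound (0.5% DMSO) for 2–3 days, then re-dosed in fresh medium for 3–4 more days. On day 6, supernatant HBsAg quantified by chemiluminescence immunoassay; EC50 from dose-response curves. Viability measured separately by CellTiter-Glo.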

SMILES | EC50 [nM]
CCOc1c2c([nH]c(=O)c1C(=O)O)-c1cc(OC)c(OCCCOC)cc1CC2C(C)C (stereo not shown) [Example 91, 4-Ethoxy-5-isopropyl-9-methoxy-8-(3-methoxypropoxy)-2-oxo-1,2,5,6-tetrahydrobenzo[h]quinoline-3-carboxylicacid] | 1700
COCCCOc1cc2c(nc1OC)-c1[nH]c(=O)c(C(=O)O)c(OC)c1C(C(C)(C)C)C2 (stereo not shown) [Example 92, 5-(tert-Butyl)-4,9-dimethoxy-8-(3-methoxypropoxy)-2-oxo-1,2,5,6-tetrahydro-1,10-phenanthroline-3-carboxylic acid] | 640
COCCCOc1cc2c(nc1C1CC1)-c1[nH]c(=O)c(C(=O)O)c(O)c1C(C(C)C)CO2 (stereo not shown) [Example 93, 2-Cyclopropyl-8-hydroxy-7-isopropyl-3-(3-methoxypropoxy)-10-oxo-6,7,10,11-tetrahydrooxepino[3,2-b:4,5-b′]dipyridine-9-carboxylic acid] | 120
COCCCOc1cc2c(cc1C1CCOCC1)-c1[nH]c(=O)c(C(=O)O)c(O)c1[C@H](C(C)C)CO2 [Example 94, (S)-4-Hydroxy-5-isopropyl-9-(3-methoxypropoxy)-2-oxo-10-(tetrahydro-2H-pyran-4-yl)-1,2,5,6-tetrahydrobenzo[2,3]oxepino[4,5-b]pyridine-3-carboxylic acid] | 730
